According to US4374040A, “Aminoalkylenephosphonic acids and salts thereof and their use in aqueous systems” (Buckman Laboratories, Inc., priority 1980, dated 1983):

Columns and labels:
[1] = Calcium Carbonate Antiprecipitation Tests; conditions: 18 hours, 25° C.
Protocol: To evaluate the effect of the aminoalkylenephosphonic acids of this invention on the precipitation of calcium carbonate, measured volumes of stock solution (prepared with demineralized water) of the phosphonic acids or their sodium salts were added to 100 ml. portions of a calcium chloride solution (0.2936 g. CaCl2.2H2 O per 100 ml. of solution). Then 100 ml. of a sodium bicarbonate solution (0.168 g. NaHCO3 per 100 ml. of solution) was added to each portion of calcium chloride solution. The test solutions were then agitated on a gyratory shaker table for 18 hours at a temperature of 25° C. At the end of this time, insoluble material was removed by filtration through a Millipore membrane filter, and the calcium ion concentration in the filtrate was determined with an atomic absorption spectrophotometer. […] The compounds tested were as follows:
A. Tetrahydro-N,N-bis(phosphonomethyl)-3-thiophenamine 1,1-dioxide (30 percent)
B. Thirty percent solution of the trisodium salt of A
D. Tetrahydro-N,N,N',N'-tetrakis(phosphonomethyl)-3,4-thiophenediamine 1,1-dioxide (30 percent)
E. 3-Hydrazinotetrahydro-N,N-bis(phosphonomethyl)thiophene 1,1-dioxide (30 percent)
F. Tetrahydro-N-(2-hydroxyethyl)-N-(phosphonomethyl)-3-thiophenamine 1,1-dioxide (30 percent)

[2] = Calcium Sulfate Antiprecipitation Tests; conditions: pH 7, 18 hours, 50° C.
Protocol: Inhibition of calcium sulfate precipitation by the aminoalkylenephosphonic acids of this invention was evaluated by adding the desired volumes of stock solutions of the phosphonic acids or their sodium salts (prepared with demineralized water) to 10-ml. aliquots of a calcium chloride solution containing 162.9 g. of CaCl2 per liter. The volume of each was made up to 175 ml. with demineralized water, and the pH was adjusted to 7.0 with dilute NaOH or HCl. A 25-ml. aliquot of a sodium sulfate solution (83.84 g. Na2 SO4 per liter) was then added to each. The test solutions were maintained for 18 hours at a temperature of 50° C. A portion of each was filtered while still hot to remove insoluble materials and the filtrate was analyzed for calcium by means of an atomic absorption instrument. The percent inhibition was calculated and the results are included in Table 2.

[3] = Barium Sulfate Antiprecipitation Tests; conditions: pH 7; for Percent inhibition of barium sulfate precipitation: 18 hours, 25° C.
Protocol: To evaluate the effect of the aminoalkylenephosphonic acids of this invention in inhibiting the precipitation of barium sulfate, the desire volumes of stock solutions of the phosphonic acids or their sodium salts (prepared with demineralized water) were added to 10-ml. aliquots of a barium chloride solution containing 5.35 g. BaCl2.H2 O per liter. The volume of each was made up to 175 ml. with demineralized water, and the pH was adjusted to 7.0 with dilute NaOH or HCl. A 25-ml. aliquot of a sodium sulfate solution (1.24 g. Na2 SO4 per liter) was then added to each. The test solutions were agitated on a gyratory shaker table for 18 hours at 25° C. At the end of this time, insoluble material was removed by filtration and the barium ion concentration was determined with an atomic absorption unit. The percent inhibition was calulated and the results are included in Table 3. Compound C was described in Example 15 and Compound H was described in Example 16. Compound I was an aqueous solution containing 22.5 percent of the trisodium salt of tetrahydro-N,N-bis(phosphonomethyl)-3-thiophenamine 1,1-dioxide and 7.5 percent of a poly(acrylic acid) having a molecular weight of about 4000. Compound J was an aqueous solution containing 7.5 percent of tetrahydro-N,N-bis(phosphononmethyl)-3-thiophenamine 1,1-dioxide and 22.5 percent of a poly(acrylic acid) having a molecular weight of about 4000. Since the percent inhibition results were lower that those obtainined in Examples 15 and 16, a well known scale inhibitor was included in this test for comparison.

SMILES | percent inhibition of calcium carbonate precipitation ([1]; pH 8.5, 1 parts per million) | percent inhibition of calcium carbonate precipitation ([1]; pH 8.5, 3 parts per million) | percent inhibition of calcium carbonate precipitation ([1]; pH 8.5, 5 parts per million) | percent inhibition of calcium carbonate precipitation ([1]; pH 8.5, 10 parts per million) | percent inhibition of calcium carbonate precipitation ([1]; pH 8.5, 25 parts per million) | percent inhibition of calcium carbonate precipitation ([1]; pH 8.5, 50 parts per million) | percent inhibition of calcium carbonate precipitation ([1]; pH 9.0, 1 parts per million) | percent inhibition of calcium carbonate precipitation ([1]; pH 9.0, 3 parts per million) | percent inhibition of calcium carbonate precipitation ([1]; pH 9.0, 5 parts per million) | percent inhibition of calcium carbonate precipitation ([1]; pH 9.0, 10 parts per million) | percent inhibition of calcium carbonate precipitation ([1]; pH 9.0, 25 parts per million) | percent inhibition of calcium carbonate precipitation ([1]; pH 9.0, 50 parts per million) | Percent inhibition of calcium sulfate precipitation ([2]; 1 parts per million) | Percent inhibition of calcium sulfate precipitation ([2]; 3 parts per million) | Percent inhibition of calcium sulfate precipitation ([2]; 5 parts per million) | Percent inhibition of calcium sulfate precipitation ([2]; 10 parts per million) | Percent inhibition of calcium sulfate precipitation ([2]; 25 parts per million) | Percent inhibition of calcium sulfate precipitation ([2]; 50 parts per million) | other results
O=P(O)(O)CN(CP(=O)(O)O)C1CCS(=O)(=O)C1 (centres unmarked) [B] | 92% | 87% | 92% | 91% | 93% | 94% | 9% | 11% | 89% | 85% | 16% | 86% | 40% | 52% | 55% | 78% | 95% | 100% | 
O=P(O)(O)CN(CP(=O)(O)O)CP(=O)(O)O [Compound K, nitrilotris(methylenephosphonic acid)] |  |  |  |  |  |  |  |  |  |  |  |  |  |  |  |  |  |  | Percent inhibition of barium sulfate precipitation ([3]; 5 parts per million): 5%; Percent inhibition of barium sulfate precipitation ([3]; 10 parts per million): 5%; Percent inhibition of barium sulfate precipitation ([3]; 25 parts per million): 6%; Percent inhibition of barium sulfate precipitation ([3]; 50 parts per million): 12%; effectiveness in inhibiting barium sulfate precipitation, compared with the combinations ([3]; in words): less than that of the combinations containing tetrahydro-N,N-bis(phosphonomethyl)-3-thiophenamine 1,1-dioxide
O=P(O)(O)CN(CCO)C1CCS(=O)(=O)C1 (centres unmarked) [F, Tetrahydro-N-(2-hydroxyethyl)-N-(phosphonomethyl)-3-thiophenamine 1,1-dioxide] | 27% | 25% | 27% | 25% | 38% | 32% |  |  |  |  |  |  | 41% | 38% | 39% | 43% | 61% | 88% | 
O=P(O)(O)CN(CP(=O)(O)O)C1CCS(=O)(=O)C1 (centres unmarked) [A, Tetrahydro-N,N-bis(phosphonomethyl)-3-thiophenamine 1,1-dioxide] | 83% | 84% | 78% | 85% | 73% | 71% |  |  |  |  |  |  |  |  |  |  |  |  | 
O=P(O)(O)CN(CP(=O)(O)O)C1CS(=O)(=O)CC1N(CP(=O)(O)O)CP(=O)(O)O (centres unmarked) [D, Tetrahydro-N,N,N',N'-tetrakis(phosphonomethyl)-3,4-thiophenediamine 1,1-dioxide] | 78% | 73% | 73% | 71% | 70% | 70% |  |  |  |  |  |  |  |  |  |  |  |  | 
O=P(O)(O)CN(CP(=O)(O)O)NC1CCS(=O)(=O)C1 (centres unmarked) [E, 3-Hydrazinotetrahydro-N,N-bis(phosphonomethyl)thiophene 1,1-dioxide] | 82% | 82% | 77% | 79% | 100% | 91% | 78% | 79% | 79% | 79% | 70% | 86% | 38% | 38% | 38% | 38% | 40% | 45% | 
